Measured values reported in ChEMBL document CHEMBL1132323, “Anti-Helicobacter pylori agents. 3. 2-[(Arylalkyl)guanidino]-4-furylthiazoles” (1999).
Converted amounts (≈) assume the structure as drawn.

Legend:
[1] = target: Histamine H2 receptor (Cavia porcellus) (UniProt P47747); assay: Histamine H2 receptor antagonism in isolated guinea pig right atrium at concentration of 1*10e-6 g/mL of histamine hydrochloride; assay type: functional, tissue-based; settings: Cardiac atrium
Helicobacter pylori [2] = assay: Minimum inhibitory concentration that inhibited macroscopic colony growth of Helicobacter pylori; assay type: functional
Rattus norvegicus = assay: Inhibition of histamine stimulated gastric acid secretion in lumen perfused stomach of anesthetized rats at 1 mg/kg i.v. dose; assay type: functional; settings: route intravenous
Clostridioides difficile [3] = assay: (§1) Antimicrobial activity against Clostridium difficile; assay type: functional, organism-based
Campylobacter jejuni = assay: Antimicrobial activity against Campylobacter jejuni; assay type: functional
Bacteroides fragilis = assay: Antimicrobial activity against Bacteroides fragilis; assay type: functional
Clostridium perfringens [4] = assay: (§2) Antimicrobial activity against Clostridium perfringens; assay type: functional, organism-based
Neisseria gonorrhoeae = assay: Antimicrobial activity against Neisseria gonorrhoeae; assay type: functional
Neisseria meningitidis = assay: Antimicrobial activity against Neisseria meningitidis; assay type: functional
Helicobacter pylori [5] = assay: Antimicrobial activity against Helicobacter pylori; assay type: functional
Clostridioides difficile [6] = assay: as §1; assay type: functional
Clostridium perfringens [7] = assay: as §2; assay type: functional

Histamine H2 receptor (Cavia porcellus), sequence (P47747 whole entry): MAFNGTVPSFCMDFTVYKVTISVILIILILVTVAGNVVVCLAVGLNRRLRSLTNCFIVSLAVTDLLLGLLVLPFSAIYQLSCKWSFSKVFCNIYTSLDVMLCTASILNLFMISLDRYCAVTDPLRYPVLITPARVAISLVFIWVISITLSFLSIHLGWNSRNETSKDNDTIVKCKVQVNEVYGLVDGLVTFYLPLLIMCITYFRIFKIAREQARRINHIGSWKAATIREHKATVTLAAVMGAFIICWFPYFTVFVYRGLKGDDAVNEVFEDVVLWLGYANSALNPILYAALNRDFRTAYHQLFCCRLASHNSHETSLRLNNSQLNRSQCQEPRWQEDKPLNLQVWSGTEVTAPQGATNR

Compound | inhibition [1] [%] | MIC (Helicobacter pylori [2]) [µg/mL] | other results
CC(=O)NCc1ccc(-c2csc(NC(=N)NCc3ccco3)n2)o1 | 46 | – | –
COc1ccccc1OCC/N=C(\N)Nc1nc(-c2ccc(CNC(C)=O)o2)cs1 | – | 2.5 (≈ 5.82 µM) | –
CC(=O)NCc1ccc(-c2csc(NC(=N)NCCc3ccccc3[N+](=O)[O-])n2)o1 | 66 | 0.14 (≈ 0.327 µM) | inhibition in vivo at 1 mg/kg (Rattus norvegicus): 39%
(2,5-Dihydroxy-4,7-dioxo-[1,3,2]dioxabismepan-5-yl)-acetic acid | – | 18 | –
Cc1ncc([N+](=O)[O-])n1CCO [METRONIDAZOLE] | – | 5.4 (≈ 31.6 µM) | –
CC(=O)NCc1ccc(-c2csc(NC(=N)NCCc3ccccc3)n2)o1 | 71 | 0.13 (≈ 0.339 µM) | inhibition in vivo at 1 mg/kg (Rattus norvegicus): 24%
CC(=O)NCc1ccc(-c2csc(NC(=N)NCc3ccccc3O)n2)o1 | – | 5.8 (≈ 15 µM) | –
COc1cccc(CC/N=C(\N)Nc2nc(-c3ccc(CNC(C)=O)o3)cs2)c1 | 70 | 0.36 (≈ 0.871 µM) | inhibition in vivo at 1 mg/kg (Rattus norvegicus): 65%
CC(=O)NCc1ccc(-c2csc(NC(=N)NCCc3ccccc3N)n2)o1 | – | 1.01 (≈ 2.53 µM) | –
CC(=O)NCc1ccc(-c2csc(NC(=N)NCCCc3ccccc3)n2)o1 | 40 | – | –
COc1cccc(C/N=C(\N)Nc2nc(-c3ccc(CNC(C)=O)o3)cs2)c1 | 28 | – | –
COc1ccccc1/N=C(\N)Nc1nc(-c2ccc(CNC(C)=O)o2)cs1 | – | 0.24 (≈ 0.623 µM) | –
CC[C@H]1OC(=O)[C@H](C)[C@@H](O[C@H]2C[C@@](C)(OC)[C@@H](O)[C@H](C)O2)[C@H](C)[C@@H](O[C@@H]2O[C@H](C)C[C@H](N(C)C)[C@H]2O)[C@](C)(OC)C[C@@H](C)C(=O)[C@H](C)[C@@H](O)[C@]1(C)O [CLARITHROMYCIN] | – | 0.057 (≈ 0.0762 µM) | –
COc1ccc(CC/N=C(\N)Nc2nc(-c3ccc(CNC(C)=O)o3)cs2)cc1 | 27 | 0.9 (≈ 2.18 µM) | inhibition in vivo at 1 mg/kg (Rattus norvegicus): 5%
CC(=O)NCc1ccc(-c2csc(NC(=N)NCCc3ccccn3)n2)o1 | 0 | 0.73 (≈ 1.9 µM) | –
BISMUTH SUBSALICYLATE | – | – | MIC (Clostridioides difficile [3]): 50 µg/mL; MIC (Campylobacter jejuni): 7.4 µg/mL; MIC (Bacteroides fragilis): 50 µg/mL; MIC (Clostridium perfringens [4]): > 100 µg/mL; MIC (Neisseria gonorrhoeae): 4.7 µg/mL; MIC (Neisseria meningitidis): 12.5 µg/mL; MIC (Helicobacter pylori [5]): 8.7 µg/mL
CC(=O)NCc1ccc(-c2csc(NC(=N)NCCc3ccco3)n2)o1 | 63 | 0.24 (≈ 0.643 µM) | inhibition in vivo at 1 mg/kg (Rattus norvegicus): 0%
COc1ccccc1CC/N=C(\N)Nc1nc(-c2cc(CNC(C)=O)co2)cs1 | – | 2.21 (≈ 5.34 µM) | –

Compound | inhibition [1] [%] | MIC (Helicobacter pylori [2]) [µg/mL] | other results
CC(=O)NCc1ccc(-c2csc(NC(=N)NCc3ccccc3C)n2)o1 | 88 | – | –
COc1ccc(C/N=C(\N)Nc2nc(-c3ccc(CNC(C)=O)o3)cs2)cc1 | – | 0.28 (≈ 0.701 µM) | –
CC(=O)NCc1ccc(-c2csc(NC(=N)NCCNc3ccccc3)n2)o1 | – | 1.79 (≈ 4.49 µM) | –
CC(=O)NCc1ccc(-c2csc(NC(=N)NCCc3ccccc3NC(C)=O)n2)o1 | – | 4.1 (≈ 9.31 µM) | –
CC(=O)NCc1ccc(-c2csc(NC(=N)NCCc3cccs3)n2)o1 | 83 | 0.112 (≈ 0.288 µM) | inhibition in vivo at 1 mg/kg (Rattus norvegicus): 21%
CC(=O)NCc1ccc(-c2csc(NC(=N)NCCc3ccncc3)n2)o1 | – | 1.92 (≈ 4.99 µM) | –
COc1ccccc1C/N=C(\N)Nc1nc(-c2ccc(CNC(C)=O)o2)cs1 | 26 | – | –
COc1ccccc1CC/N=C(\N)Nc1nc(-c2cc(C)c(CNC(C)=O)o2)cs1 | 0 | 0.03 (≈ 0.0702 µM) | –
CC(=O)NCc1ccc(-c2csc(NC(=N)NCCc3c[nH]cn3)n2)o1 | – | 31 (≈ 83 µM) | –
CN/C(=N\CCSCc1nc[nH]c1C)NC#N [CIMETIDINE] | – | 1130 (≈ 4480 µM) | inhibition in vivo at 1 mg/kg (Rattus norvegicus): 53%
CC(=O)NCc1ccc(-c2csc(NC(=N)NCc3ccccc3Cl)n2)o1 | 50 | – | –
CCOc1ccccc1C/N=C(\N)Nc1nc(-c2ccc(CNC(C)=O)o2)cs1 | 42 | – | –
CC(=O)NCc1ccc(-c2csc(NC(=N)NCc3ccccc3)n2)o1 | 35 | – | –
CC1(C)S[C@@H]2[C@H](NC(=O)[C@H](N)c3ccc(O)cc3)C(=O)N2[C@H]1C(=O)O [AMOXICILLIN] | – | – | MIC (Clostridioides difficile [6]): 0.28 µg/mL (≈ 0.766 µM); MIC (Campylobacter jejuni): 2.2 µg/mL (≈ 6.02 µM); MIC (Bacteroides fragilis): 2.1 µg/mL (≈ 5.75 µM); MIC (Clostridium perfringens [7]): 0.027 µg/mL (≈ 0.0739 µM); MIC (Neisseria gonorrhoeae): 7.7 µg/mL (≈ 21.1 µM); MIC (Neisseria meningitidis): 0.056 µg/mL (≈ 0.153 µM); MIC (Helicobacter pylori [5]): 0.021 µg/mL (≈ 0.0575 µM)
COc1ccccc1CC/N=C(\N)Nc1nc(-c2cc(CNC(C)=O)c(C)o2)cs1 | 0 | 0.046 (≈ 0.108 µM) | MIC (Clostridioides difficile [6]): > 100 µg/mL; MIC (Campylobacter jejuni): 23 µg/mL (≈ 53.8 µM); MIC (Bacteroides fragilis): > 100 µg/mL; MIC (Clostridium perfringens [7]): > 100 µg/mL; MIC (Neisseria gonorrhoeae): > 100 µg/mL; MIC (Neisseria meningitidis): > 100 µg/mL
COc1ccccc1CC/N=C(\N)Nc1nc(-c2cc(-c3ccccc3)c(CNC(C)=O)o2)cs1 | – | 9.47 (≈ 19.3 µM) | –
COc1ccccc1CC/N=C(\N)Nc1nc(-c2ccc(CNC(C)=O)o2)cs1 | 67 | 0.052 (≈ 0.126 µM) | inhibition in vivo at 1 mg/kg (Rattus norvegicus): 54%
